# Measurements taken from patent US20240241137A1, “METHOD FOR SELECTING A DRUG CANDIDATE FOR TREATING OR PREVENTING OR DELAYING THE ONSET OR PROGRESSION OF AN AMYLOIDOGENIC DISEASE” (NATIONAL HEALTH RESEARCH INSTITUTES, priority 2022, published 2024).
# Entries after “also recorded” stand apart in the source; their conditions may differ. Where a name gives a salt, the structure may show the parent alone.
# How the values were obtained:
# SH—SY5Y neuronal cells = assay: Cell viability (CCK8) of Aβ42-treated neuronal cells; details: for rescue effect of Aβ42-induced cell apoptosis: co-treatment with low dose (10 nM) LPS, bait 1, 10, 50, 100 μM, versus LPS alone; for rescue of Aβ42-induced cell death by small baits alone: without co-treatment with LPS
# Protocol: Cell viability: Neuronal cells were maintained in MEM (GIBCO® 51200-038) supplemented with 10% FBS, 1×MEM NEAA (GIBCO® 11140-050), 1×L-glutamine (GIBCO® 25030-081), and 1×sodium pyruvate (GIBCO® 1136-070). Neuronal SH—SY5Y cells were plated at a density of 8,000 cells per well in 96-well plates and allowed to attach overnight at 37° C. in 5% CO2 humidified air. Aβ42 (100 μM), LPS (10 nM), CS (100 μM), EG (100 PM), and morin (100 μM) were then added to each medium containing 2.5% dimethyl sulfoxide and sterilized using UV light. Thereafter, the solution containing Aβ42 and LPS was mixed with CS, EG, or morin at different concentrations ranging from 1 to 100 μM and added into the plate of the SH—SY5Y cells. The medium was then replaced, and the remaining mixture was incubated for 72 h at 37° C. in 5% CO2 humidified air. Cell viability was measured using the CCK8 (SIGMA-ALDRICH® 96992) assay according to the manufacturer's protocol. Before the Aβ42 treatment of Neuronal SH—SY5Y cells, a 30 k filter was used to remove unbound LPS from the LPS-insulted Aβ42 mixture.
# LPS-Aβ42 complex = LPS-Aβ42 complex (Homo sapiens, UniProt P05067); assay: Real-time mass-sensitive measurement (QCM-D) of the non-equilibrium oscillation between LPS and Aβ42; format: binding; details: for effect on the oscillatory event (lifetime) of the LPS-Aβ42 complex: bait in combination with LPS, Aβ42 100 μM, baits 20 μM; for time (apparent lifetime of the non-equilibrium interaction): mass dropping from 80% to 20%
# Source text: The lifetime of each sample was indicated in colored lines.
# A real-time mass-sensitive measurement strategy involving quartz crystal microbalance with dissipation explorer (QCM-D) and single-channel module (Q-Sense, Biolin Scientific, Vastra Frölunda, Sweden) was used to evaluate the non-equilibrium interaction between Aβ42 and two baits (LPS and natural compounds). In addition, the steady-state circular dichroism and fluorescence spectra upon excitation of tryptophan at different temperatures were recorded to reveal the secondary structures of Aβ42 in the presence and absence of LPS. The fluorescent T jump system was utilized to confirm the adsorbing capability of LPS to Aβ42 by reading the corresponding protein dynamics. The detailed methods and materials are described as follows.
# Preparation of the first bait: A solution of 0.1 mM MCL-NHS and LPS at a ratio of 1:1 was mixed in DI water. The mixture was cooled at 25° C. overnight (please refer to linker modification in the following), which spontaneously allowed the conjugation of the amine group of LPS and NHS-activated carboxylic acid of MCL. Owing to the structural complexity, it was difficult to validate the amide bond formation between MCL-NHS and LPS via NMR identification (FIG. 1). Nevertheless, the supramolecular host-guest recognition between LPS and colistin (a cyclic peptide) was used to identify the existence of MCL-modified LPS (first bait). The details of the mass-sensitive measurement are described in the next section.
# Linker modification: The conjugation of the first bait (LPS) and linker (3-mercaptopanyl-n-hydroxysuccinimide ester) was mixed together for overnight reaction before anchoring on the gold sensor. The linker may be linked to one or two —NH2 groups in the core oligosaccharide part of LPS.
# Real-time mass-sensitive measurement: Quartz crystal microbalance with dissipation explorer (QCM-D) and single-channel module (Q-Sense™, BIOLIN SCIENTIFIC®, Vastra Fralunda, Sweden) was used to evaluate the non-equilibrium interaction between Aβ42 and two baits (LPS and natural compounds). Prior to use, the new and reused gold sensors (a circle shape with a diameter of 1.0 cm, Q-Sense Sensors™, BIOLIN SCIENTIFIC®) were precleaned using a UV/ozone cleaner and piranha solution, which was a mixture of 30% H2O2 and concentrated H2SO4 at 1:3 (v/v). This piranha solution reacts violently with organic materials and should be handled with great care and protection. After washing of the gold sensors with LPS-free DI water, the first bait was initially inputted in a flow model at a flow rate of 0.15 mL/min under 25° C., which could be immediately anchored on a clean gold sensor. We conducted all measurements by switching between the continuous flowing model (CFM) and flowing-to-soaking model (FSM) after washing; the CFM maintained the same flow rate (0.15 mL/min), and the FSM allowed the flow velocity to slow down or completely stop. A sampling interval of 0.3 s was used to collect each frequency readout at seven overtones […], while the quartz crystal resonator of the QCN-D system settled at a fundamental resonant frequency (5 MHz). The Q-Sense system was utilized in addition to the following Sauerbrey equation to obtain the third overtone (n=3) and calculate the mass change after measurement.
# where Δm is the change in the adsorbed mass of molecules; Δf is the time-responded frequency observed at the third overtone; and C is a constant that is equal to 17.7 ng/cm^2 at the resonance frequency of the quartz oscillator (5 MHz). The equation (Eq. S1) allows a direct quantitative study for mass comparison.
# Operation of a real-time sensing platform: To perform the measurements, the LPS-free DI water and other solvents were allowed to continuously flow for about 1 h at 25° C. or until the baseline of two parameters (frequency and dissipation of QCM-D) reached an equilibrium state before sample operation and data collection. […]
# Aβ42 [1] = biological target: T1, Aβ42 (Homo sapiens, UniProt P05067); assay: Circular dichroism of Aβ42 and LPS-Aβ42; details: Aβ42 96 μM, LPS 160 nM, 25° C.
# Protocol: Circular dichroism (CD): Approximately 300 μL of (96 μM) and mixtures of Aβ42 (96 μM) and LPS (160 nM) were loaded into a quartz cuvette of an optical length of 1 mm (110-1-40, HELLMA ANALYTICS®) and measured using a spectrometer equipped with a thermostat (Model 410, AVIV BIOMEDICAL®, Inc.) in 190-260 nm at 25° C. with a spectral resolution of 1 nm.
# Aβ42 [2] = biological target: T1, Aβ42; assay: Fluorescent T jump protein dynamics of Aβ42 and LPS-Aβ42; details: two-state model analysis upon T jump
# Source text: A fluorescent T jump system was constructed on the basis of a previous report (Yang, C. T., Chu, L. K. Phys. Chem. Chem. Phys. 2022, 24, 11079-11085), with slight modification. The aqueous solutions were sandwiched by two quartz windows (diameter=25 mm, thickness=2 mm, #14-962, EDMUND OPTICS®) separated by a drilled Teflon spacer of a thickness of 0.8 mm. The diameter of the hole in the center was 2.0 mm. The circular infrared beam, which was used to heat up water to increase the temperature, from a continuous-wave diode laser at 1550 nm was focused with two convex lenses (f=100.0 mm; f=75.6 mm) to a diameter of 1.6 mm before entering the sample cell. […] The fluorescence was collected using a MicroSpot Focusing Objective (LMU-20X-NUV, THORLABS®, 325-500 nm) and later focused through a 200 μm pinhole by a lens (f=50.0 mm) to an optical fiber (300-1,200 nm). Thereafter, the collected fluorescence light was introduced to a photomultiplier tube and filtered using an optical filter to define the detection range at 300-445 nm. The voltage signal from the photomultiplier was amplified by a factor of 20 using a voltage pre-amplifier, and further recorded using an oscilloscope.
# The photobleaching-induced fluorescence decrease should be considered in the evolution of the fluorescence intensity change of Aβ42 and LPS-A342 upon T jump. […]
# SH—SY5Y cells = assay: Western blot of residual Aβ42 levels (clearance of Aβ42 by neuronal cells); format: cell-based; details: co-treatment with low-dose LPS, 72 h
# Protocol: The cell mixture samples were analyzed via 12% SDS-PAGE gel electrophoresis and transferred to a PVDF membrane. […] After hybridization with the primary antibody, the membrane was washed thrice with PBST before the addition of an HRP-conjugated secondary antibody against the primary antibody. The membrane was then washed thrice with PBST before immunoreactive bands were detected by UVP ChemStudio touch ([…] JENA®). The primary antibodies used in this study included the following: anti-Aβ (6E10, BIOLEGEND® 803001), anti-actin ([…]®), and anti-GAPDH (GTX100118). Signal intensity was analyzed using VisionWorks 9.1 and statistically analyzed using GraphPad Prism 9.
# Sequence of LPS-Aβ42 complex (P05067 672-713 limits assumed, one chain of several): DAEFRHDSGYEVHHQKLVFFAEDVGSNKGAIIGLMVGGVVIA
# T1 sequence (P05067 672-713 limits assumed): as the sequence (P05067 672-713 limits assumed, one chain of several) above
molecule,measurement,setting,value
Lipopolysaccharide [LPS],cell viability,SH—SY5Y neuronal cells; LPS of Aβ42 solution removed,less than 10%
same,viability of neuronal cells in medium containing Aβ42,"SH—SY5Y neuronal cells; high dose (1000 nM) of LPS, Aβ42 100 μM",100%
same,lifetime of mass oscillation,"LPS-Aβ42 complex; LPS anchored on sensor, Aβ42, FSM, no bait",less than 30 min
same,effect on secondary structure of Aβ42 (CD spectra),Aβ42 [1],does not initiate the unfolding of the secondary structure of Aβ42
same,effect on thermally induced protein dynamics of Aβ42,Aβ42 [2],retarded the upward response
O=C(/C=C/c1ccc(O)c(O)c1)O[C@H](Cc1ccc(O)c(O)c1)C(=O)O [rosmarinic acid],effect on the oscillatory event (lifetime) of the LPS-Aβ42 complex,LPS-Aβ42 complex,did not perturb the oscillatory event
O=c1c(O)c(-c2ccc(O)cc2O)oc2cc(O)cc(O)c12 [morin],residual Aβ42 levels from the total lysate,SH—SY5Y cells,significantly decreased; also recorded: dose-dependent depletion of Aβ42
same,rescue effect of Aβ42-induced cell apoptosis,SH—SY5Y neuronal cells; Aβ42 100 μM,in a dose-dependent manner; also recorded: could be observed
same,rescue of Aβ42-induced cell death by small baits alone,SH—SY5Y neuronal cells; Aβ42 100 μM,could not alleviate Aβ42-induced cell death
same,ln(γ),LPS-Aβ42 complex; [morin] 20 nM,2.75
same,Δt = tw/morin − tw/o morin,LPS-Aβ42 complex; [morin] 20 nM,63 s
same,γ (lifetime increment percentage),LPS-Aβ42 complex; [morin] 20 nM,15.7%
same,time (apparent lifetime of the non-equilibrium interaction),LPS-Aβ42 complex; [morin] 20 nM,465 s
same,ln(γ),LPS-Aβ42 complex; [morin] 50 nM,3.47
same,Δt = tw/morin − tw/o morin,LPS-Aβ42 complex; [morin] 50 nM,129 s
same,γ (lifetime increment percentage),LPS-Aβ42 complex; [morin] 50 nM,32.1%
same,time (apparent lifetime of the non-equilibrium interaction),LPS-Aβ42 complex; [morin] 50 nM,531 s
same,ln(γ),LPS-Aβ42 complex; [morin] 100 nM,4.22
same,Δt = tw/morin − tw/o morin,LPS-Aβ42 complex; [morin] 100 nM,275 s
same,γ (lifetime increment percentage),LPS-Aβ42 complex; [morin] 100 nM,68.4%
same,time (apparent lifetime of the non-equilibrium interaction),LPS-Aβ42 complex; [morin] 100 nM,677 s
same,ln(γ),LPS-Aβ42 complex; [morin] 200 nM,4.42
same,Δt = tw/morin − tw/o morin,LPS-Aβ42 complex; [morin] 200 nM,335 s
same,γ (lifetime increment percentage),LPS-Aβ42 complex; [morin] 200 nM,83.3%
same,time (apparent lifetime of the non-equilibrium interaction),LPS-Aβ42 complex; [morin] 200 nM,737 s
same,effect on the oscillatory event (lifetime) of the LPS-Aβ42 complex,LPS-Aβ42 complex,extended; also recorded: significant prolongation; also recorded: significant time extension; also recorded: prolonged in a dose-dependent manner
same,"n, power to which bait concentration is taken (slope of ln(γ) versus ln([morin]))",LPS-Aβ42 complex; linear regression of Table S1 data,0.76±0.10
chondroitin sulfate sodium [CS],residual Aβ42 levels from the total lysate,SH—SY5Y cells,not observed; also recorded: no impact on the degradation of Aβ42
same,rescue effect of Aβ42-induced cell apoptosis,SH—SY5Y neuronal cells; Aβ42 100 μM,not observed
same,rescue of Aβ42-induced cell death by small baits alone,SH—SY5Y neuronal cells; Aβ42 100 μM,could not alleviate Aβ42-induced cell death
same,effect on the oscillatory event (lifetime) of the LPS-Aβ42 complex,LPS-Aβ42 complex,shortened the binding event; also recorded: shortening
COc1cc(/C=C/C(=O)CC(=O)/C=C/c2ccc(O)c(OC)c2)ccc1O [curcumin],effect on the oscillatory event (lifetime) of the LPS-Aβ42 complex,LPS-Aβ42 complex,did not perturb the oscillatory event
CCN(CC)CCCC(C)Nc1c2ccc(Cl)cc2nc2ccc(OC)cc12 (centres unmarked) [quinacrine dihydrochloride],effect on the oscillatory event (lifetime) of the LPS-Aβ42 complex,LPS-Aβ42 complex,did not perturb the oscillatory event
O=C(OC[C@H]1O[C@@H](OC(=O)c2cc(O)c(O)c(OC(=O)c3cc(O)c(O)c(O)c3)c2)[C@H](OC(=O)c2cc(O)c(O)c(OC(=O)c3cc(O)c(O)c(O)c3)c2)[C@@H](OC(=O)c2cc(O)c(O)c(OC(=O)c3cc(O)c(O)c(O)c3)c2)[C@@H]1OC(=O)c1cc(O)c(O)c(OC(=O)c2cc(O)c(O)c(O)c2)c1)c1cc(O)c(O)c(OC(=O)c2cc(O)c(O)c(O)c2)c1 [tannic acid],effect on the oscillatory event (lifetime) of the LPS-Aβ42 complex,LPS-Aβ42 complex,did not perturb the oscillatory event
O=c1c(O)c(-c2cc(O)c(O)c(O)c2)oc2cc(O)cc(O)c12 [myricetin],effect on the oscillatory event (lifetime) of the LPS-Aβ42 complex,LPS-Aβ42 complex,did not perturb the oscillatory event
"O=C(O[C@@H]1Cc2c(O)cc(O)cc2O[C@@H]1c1cc(O)c(O)c(O)c1)c1cc(O)c(O)c(O)c1 [EG, epigallocatechin gallate]",residual Aβ42 levels from the total lysate,SH—SY5Y cells,not observed; also recorded: no impact on the degradation of Aβ42
same,rescue of Aβ42-induced cell death by small baits alone,SH—SY5Y neuronal cells; Aβ42 100 μM,could not alleviate Aβ42-induced cell death
same,effect on the oscillatory event (lifetime) of the LPS-Aβ42 complex,LPS-Aβ42 complex,did not perturb the oscillatory event
